Data taken from patent US8461362B2, “Protein phosphatase 2A-activating agents” (The Ohio State University Research Foundation, priority 2009, dated 2013).
Like-named read-outs stand apart in the source and are kept apart here.

How the values were obtained:
Assay type in all cases: cell-based
[1] = system: AR and its target gene product PSA in LNCaP cells; assay: Western blot of AR and PSA expression in LNCaP cells; details: LNCaP cells, 72 h of incubation, 2.5% FBS, Western blot, read-out: concentration reducing expression of AR and PSA by 50%
Description: Cells cultured in T25 flasks were collected by scraping, and cell pellets were washed once with PBS. Cells were lysed in a lysis buffer consisting of 1% SDS, 10 mM EDTA and 50 mM Tris-HCl, pH 8.1, in the presence of a commercial protease inhibitor cocktail from Aldrich-Sigma (2 mM AEBSF, 1 mM EDTA, 130 μM bestatin, 14 μM E-64, 1 μM leupeptin, and 0.3 μM aprotinin). Following a 10-sec sonication using 20% output in a Virsonic 300 sonicator (Virtis, Gardiner N.Y.) to disrupt cellular organelles and genomic DNA, cell lysates were centrifuged at 15,200×g for 15 minutes. One μL of the suspension was used for protein determination using a colorimetric BCA assay (Pierce, Rockford, Ill.), and to the remaining solution was added an equivalent volume of 2×SDS-polyacrylamide gel electrophoresis sample loading buffer (62.5 mM Tris-HCl, pH 6.8, 4% SDS, 5% β-mercaptoethanol, 20% glycerol, and 0.1% bromophenol blue), and boiled for 5 min. Equal amounts of proteins were resolved in 8% SDS-polyacrylamide gels, and transferred to nitrocellulose membranes using a semidry transfer cell. The transblotted membrane was washed twice with Tris-buffered saline containing 0.1% Tween 20 (TBST). After blocking with TBST containing 5% nonfat milk for 40 min, the membrane was incubated with the appropriate primary antibody in TBST-1% nonfat milk at 4° C. overnight. All primary antibodies were diluted 1:1000 in 1% nonfat milk-containing TBST. After treatment with the primary antibody, the membrane was washed three times with TBST for a total of 15 min, followed by incubation with goat anti-rabbit or anti-mouse Immunoglobulin G (IgG)-horseradish peroxidase conjugates (diluted 1:2000) for 1 h at room temperature and four washes with TBST for a total of 1 h. The immunoblots were visualized by enhanced chemiluminescence.

AR mRNA in LNCaP cells = assay: RT-PCR of AR mRNA in LNCaP cells; details: 10 μM
Description: RNA Isolation and Reverse Transcription (RT)-PCR.
LNCaP cells were subject to total RNA isolation by using a Trizol reagent (Invitrogen Corporation, CA). RNA concentrations were determined by measuring absorption at 260 nm in a spectrophotometer. Aliquots of 2 μg of total RNA from each sample were reverse transcribed to cDNAs using the iScript cDNA Synthesis Kit (Bio-Rad) according to the manufacturer's instructions. PCR products were resolved electrophoretically in 1.2% agarose gels and visualized by ethidium bromide staining.

AR promoter = assay: AR promoter-luciferase reporter assay (hAR-Luc) in LNCaP cells; details: hAR-Luc transfected LNCaP cells, 72 h of exposure
Description: Transfection and Luciferase Assay.
Cells were transfected with 5 μg of the AR-linked luciferase reporter (hAR-Luc) plasmid in an Amaxa Nucleofector using a cell line-specific nucleofector kit according to the manufacturer's protocol (Amaxa Inc. Gaithersburg, Md.) and then seeded in T25 flasks at 3×10^5 cells per flask for 48 h. The transfection efficiency was determined by transfecting cells with 3 μg of pmaxGFP plasmid followed by fluorescence microscopy to detect green fluorescent protein expression. For each transfection, herpes simplex virus (HSV) thymidine kinase promoter-driven Renilla reniformis luciferase was used as an internal control for normalization. For the luciferase reporter gene assay, after transfection, cells were cultured in 24-well plates in 10% FBS-supplemented RPMI 1640 for 48 h, subjected to different treatments in 2.5% FBS-supplemented medium for the indicated times, collected, and lysed with passive lysis buffer (Promega). Aliquots of lysates (50 μL) were mixed with 75 μL of luciferase substrate (Promega) in 96-well plates, and luciferase activities were monitored in a MicroLumaPlus LB96V luminometer (Berthold Technologies, Oak Ridge, Tenn.) with the WinGlow software package. All transfection experiments were carried out in six replicates.

[2] = system: Sp1 binding to AR promoter; assay: ChIP assay of Sp1 binding to AR promoter in LNCaP cells; details: 72 h
Description: Chromatin Immunoprecipitation (ChIP).
After drug treatment, LNCaP cells (2×10^7) in 50 mL of PBS were cross-linked with 1.35 mL of 37% formaldehyde (final concentration 1%) for 15 min at room temperature. Glycine solution (1 mol/L) was added to a final concentration of 125 mmol/L to stop the cross-linking reaction. Cells were harvested and washed twice with 5 mL of PBS, and the cell pellets were lysed in a ChIP lysis buffer containing (50 mM HEPES-KOH at pH 7.5, 140 mM NaCl, 1% Triton X-100, 0.1% sodium deoxycholate, 2 mM AEBSF, 1 mM EDTA, 130 μM bestatin, […], 1 μM leupeptin, and 0.3 μM aprotinin). The suspension was sonicated at 20% output in a Virsonic 300 sonicator with 6 sets of 10-sec pulses (resulting in an average fragment size of 0.8-0.2 kb) and centrifuged for 10 min at 15,000×g at 4° C. One-μL aliquots of the transparent supernatants were taken for determining protein concentrations by BCA assays. Immunoprecipitation was carried out as described above. Aliquots of 1 mg proteins were used for immunoprecipitation using 4 μg of anti-Sp1 antibody followed by protein A/G agarose beads. […]

Cc1c(C)c2c(c(C)c1OC(=O)CCC(=O)O)CCC(C)(CCCC(C)CCCC(C)C)O2 (centres unmarked) [TS-1, succinic acid mono-[2-(4,8-dimethyl-nonyl)-2,5,7,8-tetramethylchroman-6-yl]ester]
IC50 ([1]; Homo sapiens): 5 µM | AR mRNA transcript level (AR mRNA in LNCaP cells): time-dependent reduction | AR gene transcription (luciferase reporter activity) (AR promoter): dose-dependent inhibitory effect | Sp1 binding to AR promoter [2]: diminished the Sp1 binding to AR promoter in a dose-dependent manner

Cc1c(C)c2c(c(C)c1OC(=O)CCC(=O)O)CC[C@@](C)(CCC[C@H](C)CCC[C@H](C)CCCC(C)C)O2 [VES, α-tocopheryl succinate]
IC50 [1]: ≥ 10 µM | AR mRNA transcript level (AR mRNA in LNCaP cells): time-dependent reduction | AR gene transcription (luciferase reporter activity) (AR promoter): dose-dependent inhibitory effect | Sp1 binding to AR promoter [2]: diminished the Sp1 binding to AR promoter in a dose-dependent manner
